In paper PMC3984001 (Neuropharmacology, 2014):
Where two headings read alike, the source gives them in different places.

Key:
Type in all cases: cell-based
hα2hβ2wt-nAChR = hα2hβ2wt-nAChR (Homo sapiens, UniProt P17787+Q15822); settings: 316 μM ACh or 100 μM nicotine
human α2β2-nAChR [1] = biological target: T1, human α2β2-nAChR (Homo sapiens, UniProt P17787+Q15822); settings: for Peak current: hα2hβ2opt, 316 μM ACh or 100 μM nicotine; for Higher agonist sensitivity of 1:10 (HS) than 1:1 receptors: α2:β2 1:10 vs 1:1 cRNA; for Higher agonist sensitivity of 1:10 (HS) than 1:1 receptors / Higher agonist sensitivity of 1:10 (HS) than 10:1 (LS) receptors: range printed for ACh or nicotine together; for Lower Imax of 1:10 (HS) than 1:1 or 10:1 receptors: α2:β2 1:10 vs 1:1 or 10:1 cRNA; for Higher agonist sensitivity of 1:10 (HS) than 10:1 (LS) receptors: α2:β2 1:10 vs 10:1 cRNA; for Lower Imax of 10:1 than 1:1 receptors / Lower agonist sensitivity of 10:1 than 1:1 receptors: α2:β2 10:1 vs 1:1 cRNA; for Peak response Imax (Mean±SE): at the Imax concentration of the agonist; for EC50: Potency EC50 (95% CI), −70 mV
T1 sequence (Q15822 27-529): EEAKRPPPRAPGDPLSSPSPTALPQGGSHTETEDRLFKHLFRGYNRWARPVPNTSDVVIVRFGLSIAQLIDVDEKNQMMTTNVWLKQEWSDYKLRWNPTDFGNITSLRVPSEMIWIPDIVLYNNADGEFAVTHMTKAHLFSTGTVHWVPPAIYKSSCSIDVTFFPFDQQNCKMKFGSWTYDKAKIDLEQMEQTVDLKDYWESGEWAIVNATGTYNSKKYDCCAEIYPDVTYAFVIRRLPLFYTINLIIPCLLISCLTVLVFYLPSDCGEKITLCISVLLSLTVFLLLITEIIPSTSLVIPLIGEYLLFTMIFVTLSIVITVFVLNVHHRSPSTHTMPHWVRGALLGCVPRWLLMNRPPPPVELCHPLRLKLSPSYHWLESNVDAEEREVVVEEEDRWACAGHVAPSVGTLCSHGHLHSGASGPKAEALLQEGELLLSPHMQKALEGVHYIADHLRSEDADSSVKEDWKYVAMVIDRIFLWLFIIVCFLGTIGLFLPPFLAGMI
T1 sequence (P17787 26-502): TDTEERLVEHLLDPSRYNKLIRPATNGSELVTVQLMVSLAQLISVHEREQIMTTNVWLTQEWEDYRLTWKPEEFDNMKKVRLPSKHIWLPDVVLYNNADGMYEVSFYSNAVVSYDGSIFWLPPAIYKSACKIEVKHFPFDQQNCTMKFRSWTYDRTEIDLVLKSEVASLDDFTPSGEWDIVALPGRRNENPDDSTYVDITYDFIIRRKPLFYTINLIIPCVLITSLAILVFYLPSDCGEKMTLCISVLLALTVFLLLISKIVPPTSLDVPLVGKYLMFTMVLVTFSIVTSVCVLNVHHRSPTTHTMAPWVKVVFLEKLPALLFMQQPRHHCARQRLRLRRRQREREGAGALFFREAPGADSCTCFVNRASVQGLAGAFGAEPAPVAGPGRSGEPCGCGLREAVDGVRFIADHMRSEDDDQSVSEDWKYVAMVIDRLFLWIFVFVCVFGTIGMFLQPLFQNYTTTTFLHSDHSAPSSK

human α2(T22I)β2-nAChR [2] = biological target: T2, human α2(T22I)β2-nAChR (Homo sapiens, UniProt P17787+Q15822, T22I); settings: for Higher agonist sensitivity of 1:10 (HS) than 1:1 or 10:1 receptors: α2(T22I):β2 1:10 vs 1:1 or 10:1 cRNA; for Lower Imax of 10:1 than 1:1 receptors / Lower agonist sensitivity of 10:1 than 1:1 receptors: α2(T22I):β2 10:1 vs 1:1 cRNA; for Peak response Imax (Mean±SE): at the Imax concentration of the agonist
T2 sequence (Q15822 27-529): as the sequence (Q15822 27-529) above
T2 sequence (P17787 26-502): as the sequence (P17787 26-502) above

human α2β2-nAChR [3] = biological target: T1, human α2β2-nAChR; test: Mecamylamine block of agonist-induced Imax responses; settings: 1000 μM mecamylamine; α2:β2 1:1, 10:1 or 1:10; data not shown
human α2(T22I)β2-nAChR [4] = biological target: T2, human α2(T22I)β2-nAChR; test: as above; settings: 1000 μM mecamylamine; α2(T22I):β2 1:1, 10:1 or 1:10; data not shown
human α2(T22I)β4-nAChR [5] = biological target: T3, human α2(T22I)β4-nAChR (Homo sapiens, UniProt P30926+Q15822, T22I); test: Mecamylamine block of agonist-induced peak currents; settings: ACH-2, read-out: Inhibition of ACh-induced peak current responses, 1000 μM mecamylamine; 316 μM ACh; α2(T22I):β4 1:1
T3 sequence (Q15822 27-529): as the sequence (Q15822 27-529) above
T3 sequence (P30926 22-498): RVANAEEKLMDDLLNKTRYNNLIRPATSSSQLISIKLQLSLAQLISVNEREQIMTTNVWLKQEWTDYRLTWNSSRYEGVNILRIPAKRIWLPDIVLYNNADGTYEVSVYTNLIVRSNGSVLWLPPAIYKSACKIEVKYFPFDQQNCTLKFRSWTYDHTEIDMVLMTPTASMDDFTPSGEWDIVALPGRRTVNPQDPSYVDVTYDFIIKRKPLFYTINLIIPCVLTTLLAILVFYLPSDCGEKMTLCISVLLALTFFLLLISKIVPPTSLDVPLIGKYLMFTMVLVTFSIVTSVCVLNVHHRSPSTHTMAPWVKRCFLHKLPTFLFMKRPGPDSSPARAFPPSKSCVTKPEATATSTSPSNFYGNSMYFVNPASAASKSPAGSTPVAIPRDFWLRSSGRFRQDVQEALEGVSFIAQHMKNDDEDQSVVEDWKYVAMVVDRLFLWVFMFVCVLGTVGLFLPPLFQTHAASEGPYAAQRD

human α2(T22I)β4-nAChR [6] = biological target: T3, human α2(T22I)β4-nAChR; settings: for EC50: Potency EC50 (95% CI), −70 mV; for Peak response Imax (Mean±SE): at the Imax concentration of the agonist
human α2β4-nAChR = human α2β4-nAChR (Homo sapiens, UniProt P30926+Q15822); settings: for EC50: Potency EC50 (95% CI), −70 mV; for Peak response Imax (Mean±SE): at the Imax concentration of the agonist
Chain of human α2β4-nAChR (Q15822 27-529): as the sequence (Q15822 27-529) above
Chain of human α2β4-nAChR (P30926 22-498): as the sequence (P30926 22-498) above

Chain of hα2hβ2wt-nAChR (Q15822 27-529): as the sequence (Q15822 27-529) above
Chain of hα2hβ2wt-nAChR (P17787 26-502): as the sequence (P17787 26-502) above

CC(=O)OCC[N+](C)(C)C [ACh, acetylcholine]
Peak current (hα2hβ2wt-nAChR): 28±6 nA | Peak current (human α2β2-nAChR [1]): 406±89 nA | Higher agonist sensitivity of 1:10 (HS) than 1:1 receptors (human α2β2-nAChR [1]): 2–3 fold | Lower Imax of 1:10 (HS) than 1:1 or 10:1 receptors (human α2β2-nAChR [1]): 47–70% | Higher agonist sensitivity of 1:10 (HS) than 10:1 (LS) receptors (human α2β2-nAChR [1]): 8–18 fold | Lower Imax of 10:1 than 1:1 receptors (human α2β2-nAChR [1]): ~ 43% | Lower agonist sensitivity of 10:1 than 1:1 receptors (human α2β2-nAChR [1]): ~ 5 fold | Hill coefficient nH ± SE (human α2β2-nAChR [1]; α2β2(1:1)): 0.7 ± 0.05 | Peak response Imax (Mean±SE) (human α2β2-nAChR [1]; α2β2(1:1)): 551 ± 62 nA | Hill coefficient nH ± SE (human α2β2-nAChR [1]; α2β2(1:10)): 1 ± 0.08 | Peak response Imax (Mean±SE) (human α2β2-nAChR [1]; α2β2(1:10)): 167 ± 18 nA | Hill coefficient nH ± SE (human α2β2-nAChR [1]; α2β2(10:1)): 0.9 ± 0.08 | Peak response Imax (Mean±SE) (human α2β2-nAChR [1]; α2β2(10:1)): 314 ± 84 nA | Higher agonist sensitivity of 1:10 (HS) than 1:1 or 10:1 receptors (human α2(T22I)β2-nAChR [2]): 4–9 fold | Lower Imax of 10:1 than 1:1 receptors (human α2(T22I)β2-nAChR [2]): ~ 25 fold | Lower agonist sensitivity of 10:1 than 1:1 receptors (human α2(T22I)β2-nAChR [2]): ~ 2 fold | Hill coefficient nH ± SE (human α2(T22I)β2-nAChR [2]; α2(T22I)β2(1:1)): 0.9 ± 0.08 | Peak response Imax (Mean±SE) (human α2(T22I)β2-nAChR [2]; α2(T22I)β2(1:1)): 1326 ± 214 nA | Peak response Imax (Mean±SE) (human α2(T22I)β2-nAChR [2]; α2(T22I)β2(1:10)): 952 ± 128 nA | Hill coefficient nH ± SE (human α2(T22I)β2-nAChR [2]; α2(T22I)β2(10:1)): 0.9 ± 0.3 | Peak response Imax (Mean±SE) (human α2(T22I)β2-nAChR [2]; α2(T22I)β2(10:1)): 54 ± 9 nA

CNC1(C)C2CCC(C2)C1(C)C (centres unmarked) [Mecamylamine, mecamylamine]
Effect on ACh or nicotine induced Imax responses (human α2β2-nAChR [3]): completely abolished | Effect on ACh or nicotine induced Imax responses (human α2(T22I)β2-nAChR [4]): completely abolished | inhibition at 1000 µM (human α2(T22I)β4-nAChR [5]): 99%

CN1CCC[C@H]1c1cccnc1 [Nicotine, L-nicotine]
Peak current (hα2hβ2wt-nAChR): 24±5 nA | EC50 (human α2(T22I)β4-nAChR [6]; α2(T22I)β4(1:1) cRNA ratio): 12 µM | EC50 (human α2(T22I)β4-nAChR [6]; α2(T22I)β4(1:10) cRNA ratio, putative HS): 2.6 µM | EC50 (human α2(T22I)β4-nAChR [6]; α2(T22I)β4(10:1) cRNA ratio, putative LS): 14 µM | Hill coefficient nH ± SE (human α2(T22I)β4-nAChR [6]; α2(T22I)β4(1:1)): 1.8 ± 0.07 | Imax Conc. (concentration where Imax is achieved) (human α2(T22I)β4-nAChR [6]; α2(T22I)β4(1:1)): 100 µM | Peak response Imax (Mean±SE) (human α2(T22I)β4-nAChR [6]; α2(T22I)β4(1:1)): 1527 ± 245 nA | Peak response Imax (Mean±SE) (human α2(T22I)β4-nAChR [6]; α2(T22I)β4(1:1), listed as nicotine): 1527 nA | Hill coefficient nH ± SE (human α2(T22I)β4-nAChR [6]; α2(T22I)β4(1:10)): 1.2 ± 0.04 | Imax Conc. (concentration where Imax is achieved) (human α2(T22I)β4-nAChR [6]; α2(T22I)β4(1:10)): 100 µM | Peak response Imax (Mean±SE) (human α2(T22I)β4-nAChR [6]; α2(T22I)β4(1:10)): 3996 ± 168 nA | Hill coefficient nH ± SE (human α2(T22I)β4-nAChR [6]; α2(T22I)β4(10:1)): 2 ± 0.2 | Imax Conc. (concentration where Imax is achieved) (human α2(T22I)β4-nAChR [6]; α2(T22I)β4(10:1)): 100 µM | Peak response Imax (Mean±SE) (human α2(T22I)β4-nAChR [6]; α2(T22I)β4(10:1)): 402 ± 70 nA | Peak current lower than wild-type α2β4 (human α2(T22I)β4-nAChR [6]; α2(T22I)β4 vs α2β4, 1:1 cRNA (mixture of isoforms)): ~ 30% | EC50 (human α2β2-nAChR [1]; α2β2(1:1) cRNA ratio): 1.8 µM | EC50 (human α2β2-nAChR [1]; α2β2(1:10) cRNA ratio, putative HS): 0.83 µM | EC50 (human α2β2-nAChR [1]; α2β2(10:1) cRNA ratio, putative LS): 6.3 µM | Peak current (human α2β2-nAChR [1]): 291±55 nA | Higher agonist sensitivity of 1:10 (HS) than 1:1 receptors (human α2β2-nAChR [1]): 2–3 fold | Lower Imax of 1:10 (HS) than 1:1 or 10:1 receptors (human α2β2-nAChR [1]): 72–82% | Higher agonist sensitivity of 1:10 (HS) than 10:1 (LS) receptors (human α2β2-nAChR [1]): 8–18 fold | Lower Imax of 10:1 than 1:1 receptors (human α2β2-nAChR [1]): ~ 36% | Lower agonist sensitivity of 10:1 than 1:1 receptors (human α2β2-nAChR [1]): ~ 3.5 fold | Hill coefficient nH ± SE (human α2β2-nAChR [1]; α2β2(1:1)): 0.8 ± 0.08 | Imax Conc. (concentration where Imax is achieved) (human α2β2-nAChR [1]; α2β2(1:1)): 100 µM | Peak response Imax (Mean±SE) (human α2β2-nAChR [1]; α2β2(1:1)): 373 ± 33 nA | Hill coefficient nH ± SE (human α2β2-nAChR [1]; α2β2(1:10)): 1.1 ± 0.13 | Imax Conc. (concentration where Imax is achieved) (human α2β2-nAChR [1]; α2β2(1:10)): 31.6 µM | Peak response Imax (Mean±SE) (human α2β2-nAChR [1]; α2β2(1:10)): 68 ± 7.8 nA | Hill coefficient nH ± SE (human α2β2-nAChR [1]; α2β2(10:1)): 1.2 ± 0.06 | Imax Conc. (concentration where Imax is achieved) (human α2β2-nAChR [1]; α2β2(10:1)): 100 µM | Peak response Imax (Mean±SE) (human α2β2-nAChR [1]; α2β2(10:1)): 239 ± 21 nA | EC50 (human α2(T22I)β2-nAChR [2]; Potency EC50 (95% CI), α2(T22I)β2(1:1) cRNA ratio, −70 mV): 6.7 µM | Higher agonist sensitivity of 1:10 (HS) than 1:1 or 10:1 receptors (human α2(T22I)β2-nAChR [2]): 3–5 fold | Lower Imax of 10:1 than 1:1 receptors (human α2(T22I)β2-nAChR [2]): ~ 23 fold | Lower agonist sensitivity of 10:1 than 1:1 receptors (human α2(T22I)β2-nAChR [2]): ~ 2 fold | Hill coefficient nH ± SE (human α2(T22I)β2-nAChR [2]; α2(T22I)β2(1:1)): 1.2 ± 0.08 | Imax Conc. (concentration where Imax is achieved) (human α2(T22I)β2-nAChR [2]; α2(T22I)β2(1:1)): 100 µM | Peak response Imax (Mean±SE) (human α2(T22I)β2-nAChR [2]; α2(T22I)β2(1:1)): 1463 ± 136 nA | Hill coefficient nH ± SE (human α2(T22I)β2-nAChR [2]; α2(T22I)β2(1:10)): 1 ± 0.07 | Imax Conc. (concentration where Imax is achieved) (human α2(T22I)β2-nAChR [2]; α2(T22I)β2(1:10)): 31.6 µM | Peak response Imax (Mean±SE) (human α2(T22I)β2-nAChR [2]; α2(T22I)β2(1:10)): 1004 ± 91 nA | Hill coefficient nH ± SE (human α2(T22I)β2-nAChR [2]; α2(T22I)β2(10:1)): 1.1 ± 0.2 | Imax Conc. (concentration where Imax is achieved) (human α2(T22I)β2-nAChR [2]; α2(T22I)β2(10:1)): 100 µM | Peak response Imax (Mean±SE) (human α2(T22I)β2-nAChR [2]; α2(T22I)β2(10:1)): 62 ± 12 nA | EC50 (human α2β4-nAChR; α2β4(1:1) cRNA ratio): 4.7 µM | EC50 (human α2β4-nAChR; α2β4(1:10) cRNA ratio, putative HS): 3.8 µM | EC50 (human α2β4-nAChR; α2β4(10:1) cRNA ratio, putative LS): 11 µM | Hill coefficient nH ± SE (human α2β4-nAChR; α2β4(1:1)): 1.1 ± 0.1 | Imax Conc. (concentration where Imax is achieved) (human α2β4-nAChR; α2β4(1:1)): 100 µM | Peak response Imax (Mean±SE) (human α2β4-nAChR; α2β4(1:1)): 2088 ± 96 nA | Peak response Imax (Mean±SE) (human α2β4-nAChR; α2β4(1:1), listed as nicotine): 2088 nA | Hill coefficient nH ± SE (human α2β4-nAChR; α2β4(1:10)): 1.3 ± 0.08 | Imax Conc. (concentration where Imax is achieved) (human α2β4-nAChR; α2β4(1:10)): 100 µM | Peak response Imax (Mean±SE) (human α2β4-nAChR; α2β4(1:10)): 1814 ± 155 nA | Hill coefficient nH ± SE (human α2β4-nAChR; α2β4(10:1)): 1.6 ± 0.09 | Imax Conc. (concentration where Imax is achieved) (human α2β4-nAChR; α2β4(10:1)): 100 µM | Peak response Imax (Mean±SE) (human α2β4-nAChR; α2β4(10:1)): 1139 ± 93 nA
